Read-outs that look alike come from different tables or passages of the source.
Legend:
[1] = Cytotoxicity determination (CCK-8, without addition of virus); type: cell-based; details: human, HEp-2 cells (uninfected), no virus, Table C = greater than 100 μM, Table D = equal to or less than 100 μM and greater than 10 μM
Protocol: CPE reduction assays are performed as described by Sidwell and Huffman et al., Appl. Microbiol. (1971) 22(5):797-801 with slight modifications. HEp-2 cells (ATCC#, CCL-23) are seeded at a density of 1,500 cells/30 μL/well into the 384-well cell plate(s) (Corning#3701) one day prior to the assay. Compounds are added into 384-well cell plates by Labcyte POD 810 Plate Assembler system. Each of the test compounds is provided to duplicate wells of a 384-well cell plate at final concentrations starting from 100 μM or 1 μM using 1/3 stepwise dilutions for 9 points. Quick-thaw Respiratory Syncytial Virus (RSV) long strain (ATCC#VR-26) stock in a 37° C. water bath. Place on ice until ready to use. Viruses are diluted to the concentration of 100 TCID50/30 μL with medium and 30 μl diluted RSV are added into related wells of 384-well cell plates. For each plate, sixteen wells are set aside as uninfected, untreated cell controls (CC), and nine wells per test plate receive virus only as a control for virus replication (VC). The final DMSO concentration of all wells is 1%. Place the plates at 37° C., 5% CO2 for 5 days.
In order to determine the compound cytotoxicity, in parallel, each of the compounds is applied to duplicate wells in a 384-well cell plate at serial final concentrations starting from 100 μM using ½ stepwise dilutions for 7 points without addition of virus. Incubate the cells at 37° C., 5% CO2 for 5 days. Add 6 μL CCK-8 into each well and incubate in a CO2 incubator at 37° C. for 3-4 h. Read the plates to obtain the optical densities which are used to calculate 50% cytotoxicity concentration (CC50).

recombinant RSV complex = recombinant RSV complex (Human respiratory syncytial virus A, UniProt P28887); assay: RSV polymerase inhibition assay; type: biochemical; details: 2 h at 30° C., Table E = <1 μM, Table F = <50 μM
Sequence of recombinant RSV complex (P28887 whole entry): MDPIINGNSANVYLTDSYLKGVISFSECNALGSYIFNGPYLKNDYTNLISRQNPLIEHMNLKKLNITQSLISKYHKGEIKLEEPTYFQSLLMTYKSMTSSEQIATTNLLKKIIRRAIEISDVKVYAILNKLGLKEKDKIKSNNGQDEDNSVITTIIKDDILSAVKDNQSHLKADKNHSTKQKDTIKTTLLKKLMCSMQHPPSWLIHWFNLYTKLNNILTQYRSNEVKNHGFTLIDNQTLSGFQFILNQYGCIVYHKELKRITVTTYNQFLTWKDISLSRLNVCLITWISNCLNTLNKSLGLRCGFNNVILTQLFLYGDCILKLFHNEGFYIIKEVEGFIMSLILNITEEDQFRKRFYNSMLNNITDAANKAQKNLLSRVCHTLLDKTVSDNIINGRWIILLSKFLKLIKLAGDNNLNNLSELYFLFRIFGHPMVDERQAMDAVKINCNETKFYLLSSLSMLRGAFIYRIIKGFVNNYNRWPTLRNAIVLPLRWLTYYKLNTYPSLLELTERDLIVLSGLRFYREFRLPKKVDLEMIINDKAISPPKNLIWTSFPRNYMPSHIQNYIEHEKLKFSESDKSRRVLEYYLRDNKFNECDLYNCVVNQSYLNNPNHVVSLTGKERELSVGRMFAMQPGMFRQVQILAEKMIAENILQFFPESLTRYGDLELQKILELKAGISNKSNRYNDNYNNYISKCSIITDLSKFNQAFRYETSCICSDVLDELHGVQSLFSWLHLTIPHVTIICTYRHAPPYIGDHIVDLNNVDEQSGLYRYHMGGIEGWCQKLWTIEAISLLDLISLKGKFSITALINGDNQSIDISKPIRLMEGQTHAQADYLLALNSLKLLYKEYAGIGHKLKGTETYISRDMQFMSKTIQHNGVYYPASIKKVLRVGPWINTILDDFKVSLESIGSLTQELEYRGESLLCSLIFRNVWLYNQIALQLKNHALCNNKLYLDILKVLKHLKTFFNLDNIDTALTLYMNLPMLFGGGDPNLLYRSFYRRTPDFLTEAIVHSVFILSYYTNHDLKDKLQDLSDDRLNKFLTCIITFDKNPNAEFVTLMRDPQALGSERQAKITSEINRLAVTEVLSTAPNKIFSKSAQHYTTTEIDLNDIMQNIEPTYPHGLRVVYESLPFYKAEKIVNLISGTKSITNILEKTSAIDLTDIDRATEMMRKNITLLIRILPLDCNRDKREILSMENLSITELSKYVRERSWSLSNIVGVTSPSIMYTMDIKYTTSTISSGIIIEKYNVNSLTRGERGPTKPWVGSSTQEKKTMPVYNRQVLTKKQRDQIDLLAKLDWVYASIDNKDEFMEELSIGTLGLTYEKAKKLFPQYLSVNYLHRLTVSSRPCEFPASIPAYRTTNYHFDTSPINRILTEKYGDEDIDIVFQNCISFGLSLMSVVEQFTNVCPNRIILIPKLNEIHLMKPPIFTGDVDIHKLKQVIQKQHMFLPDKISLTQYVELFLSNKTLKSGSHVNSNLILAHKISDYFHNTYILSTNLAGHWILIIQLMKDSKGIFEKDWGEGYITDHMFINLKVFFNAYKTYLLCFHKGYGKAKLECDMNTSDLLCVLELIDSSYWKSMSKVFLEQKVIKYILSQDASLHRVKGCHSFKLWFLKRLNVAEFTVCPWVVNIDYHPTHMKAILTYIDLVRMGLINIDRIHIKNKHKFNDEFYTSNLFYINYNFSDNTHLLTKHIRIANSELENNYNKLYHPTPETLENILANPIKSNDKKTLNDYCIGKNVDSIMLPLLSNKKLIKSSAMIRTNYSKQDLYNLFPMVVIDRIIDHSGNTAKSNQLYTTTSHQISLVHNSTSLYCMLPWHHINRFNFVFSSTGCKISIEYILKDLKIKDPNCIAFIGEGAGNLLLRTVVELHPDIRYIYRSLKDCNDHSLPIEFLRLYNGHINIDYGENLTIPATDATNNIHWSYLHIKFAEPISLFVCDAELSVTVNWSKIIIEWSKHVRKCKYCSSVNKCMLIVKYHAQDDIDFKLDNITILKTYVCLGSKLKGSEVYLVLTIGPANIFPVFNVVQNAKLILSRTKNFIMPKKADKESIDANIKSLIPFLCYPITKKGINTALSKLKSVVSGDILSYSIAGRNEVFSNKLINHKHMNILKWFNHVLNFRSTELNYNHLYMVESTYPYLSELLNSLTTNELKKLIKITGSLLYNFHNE
Sequence of recombinant RSV complex (P03421 whole entry, further chain): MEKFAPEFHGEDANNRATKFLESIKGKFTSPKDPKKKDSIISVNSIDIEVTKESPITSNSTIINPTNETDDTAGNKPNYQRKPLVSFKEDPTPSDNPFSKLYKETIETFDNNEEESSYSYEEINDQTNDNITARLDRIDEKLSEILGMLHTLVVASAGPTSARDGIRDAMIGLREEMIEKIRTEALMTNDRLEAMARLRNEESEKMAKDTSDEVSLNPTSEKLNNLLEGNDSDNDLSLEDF
Protocol: Standard RSV polymerase assays were conducted in the presence of 10 nM recombinant RSV complex in a reaction buffer containing Tris-HCl pH7.5, 6 mM MgCl2, and other additives and substrates including RNA oligonucleotides and radionucleotides. Standard reactions were incubated in 96-well plate format for 2 h at 30° C., in the presence of increasing concentration of inhibitor. The reaction was stopped with 90 μL of 0.1M EDTA, and the reaction product was transferred to a “reading” 96-well plate. After washing of the plate, radiolabeled RNA products were detected according to standard procedures with a Trilux Topcount scintillation counter. The compound concentration at which the enzyme-catalyzed rate was reduced by 50% (IC50) was calculated by fitting the data to a non-linear regression (sigmoidal).

[2] = system: RSV subgenomic replicon 395 HeLa and APC126; assay: RSV subgenomic replicon assay (Renilla luciferase); type: cell-based; details: human respiratory syncytial virus; RSV replicon cells (395 HeLa 7 days or APC126 3 days); Table G = less than 1 μM, Table H = equal to or higher than 1 μM and less than 50 μM
From the text: The RSV subgenomic replicon 395 HeLa and APC126 were licensed from Apath (Brooklyn, N.Y.) and were originally developed by Dr. Mark Meeples of Center for Vaccines & Immunity, the Research Institute at Nationwide Children's Hospital in Columbus, Ohio. To generate subgenomic RSV replicon, three glycoprotein genes, those for SH, G, and F, from a full-length recombinant GFP-expressing (rg) RSV antigenomic cDNA were deleted. In their place, a blasticidin S deaminase (bsd) gene was inserted. Through multiple steps, the RSV replicon was established in HeLa cells (395 Hela) or BHK cells (APC126). Both 395 HeLa and APC126 cells were cultured in Dulbecco's Modified Eagle Medium (DMEM) containing 4500 mg/L D-glucose, L-glutamine, and 110 mg/L sodium pyruvate (Invitrogen, Cat. #11995-040). The medium was further supplemented with 10% (v/v) fetal bovine serum (FBS) (Mediatech, Cat. #35-010-CV), 1% (v/v) penicillin/streptomycin (Mediatech, Cat. #30-002-CI), and 10 μg/mL of Blasticidin (BSD) (Invivogen, Cat. code ant-bl-1). Cells were maintained at 37° C. in a humidified 5% CO2 atmosphere.
Determination of 50% inhibitory concentration (EC50), 90% inhibitory concentration (EC90) and 50% cytotoxic concentration (CC50) in RSV replicon cells were performed by the following procedure. On the first day, 5000 RSV replicon cells per well were plated in a 96-well plate. On the following day, compounds to be tested were solubilized in 100% DMSO to 100X the desired final testing concentration. Each compound was serially diluted (1:3) up to 9 distinct concentrations. Compounds in 100% DMSO were reduced to 10% (v/v) DMSO by diluting 1:10 in cell culture media. A 10 μL sample of the compounds diluted to 10% (v/v) DMSO with cell culture media was used to treat the RSV replicon cells in 96-well format. The final DMSO concentration was 1% (v/v). Cells were incubated with compounds for 7 days (for 395Hela) or 3 days (for APC126) at 37° C. in a 5% CO2 atmosphere. In each assay, positive control that was previously characterized in the RSV replicon assay was included.
The Renilla Luciferase Assay System (Promega, Cat. #E2820) was used to measure anti-RSV replicon activity. Assay plates were set up as stated above. Luminescence was recorded using a Perkin Elmer multilabel counter Victor3V. EC50, the concentration of the drug required for reducing RSV replicon RNA by 50% in relation to the untreated cell control value, was calculated from the plot of percentage reductions of the […] against the drug concentrations using the Microsoft Excel forecast function.

[3] = 10 nM recombinant RSV complex, read-out: IC50

SMILES	CC50 at 5 days [1] [µM]	IC50 (recombinant RSV complex; [3]) [µM]	EC50 [2] [µM]	IC50 (recombinant RSV complex; IC50, 10 nM recombinant RSV complex) [µM]
COc1cc(C(=O)NC[C@@](O)(c2cc3c(c(-c4ccc(F)cc4)n2)OC[C@]3(N)C2CC2)C(F)(F)F)ccc1OC[C@@H](C)O (single isomer, unassigned) [Compound 106]	10 to 100	< 1	< 1	–
COc1cc(C(=O)NC[C@](O)(c2cc3c(c(-c4ccc(F)cc4)n2)OC[C@]3(N)C2CC2)C(F)(F)F)ccc1OC[C@@H](C)O (single isomer, unassigned) [Compound 107]	10 to 100	< 50	1 to 50	–
COc1cc(C(=O)NCC(O)(c2cc3c(c(-c4ccc(F)cc4)n2)OCC3(C)N)C(F)(F)F)cc2c1NC(=O)CC2 (stereo not drawn) [Compound 11]	10 to 100	< 1	< 1	–
COc1cc(C(=O)NCC(O)(c2cc(C(C)CCN)cc(-c3ccc(F)cc3)n2)C(F)(F)F)ccc1OCCO (stereo not drawn) [Compound 13]	10 to 100	< 1	< 1	–
C[C@@]1(N)COc2c1cc(C(O)(CNC(=O)c1ccc3[nH]ccc3c1)C(F)(F)F)nc2-c1ccc(F)cc1 (stereo partly drawn) [Compound 16]	10 to 100	< 1	< 1	–
COc1cc(C(=O)NCC(O)(c2cc(C3CCNCC3)cc(-c3ccc(F)cc3)n2)C(F)(F)F)ccc1OCCO (stereo not drawn) [Compound 18]	10 to 100	< 1	< 1	–
COc1cc(C(=O)NC[C@@](O)(c2cc3c(c(-c4ccc(F)cc4)n2)OC[C@@]3(C)N)C(F)(F)F)ccc1-c1nc(C)no1 [Compound 19]	10 to 100	< 1	< 1	–
COc1cnc(C(=O)NCC(O)(c2cc3c(c(-c4ccc(F)cc4)n2)OCC3(C)N)C(F)(F)F)cc1OC (stereo not drawn) [Compound 20]	10 to 100	< 1	< 1	–
COc1cc(C(=O)NCC(O)(c2cc3c(c(-c4ccc(F)cc4)n2)OCC3(C)N)C(F)(F)F)ccc1OC(C)CO (stereo not drawn) [Compound 21]	10 to 100	< 1	< 1	–
CC1(N)COc2c1cc(C(O)(CNC(=O)c1ccc(CO)c(OC3CC3)c1)C(F)(F)F)nc2-c1ccc(F)cc1 (stereo not drawn) [Compound 22]	10 to 100	< 1	< 1	–
COc1ccc(C(=O)NCC(O)(c2cc3c(c(-c4ccc(F)cc4)n2)OCC3(C)N)C(F)(F)F)cc1OC1CC1 (stereo not drawn) [Compound 23]	10 to 100	< 1	< 1	–
CC1(N)COc2c1cc(C(O)(CNC(=O)c1ccc(OCCO)c(OC3CC3)c1)C(F)(F)F)nc2-c1ccc(F)cc1 (stereo not drawn) [Compound 24]	10 to 100	< 1	< 1	–
COc1cc(C(=O)NCC(O)(c2cc3c(c(-c4ccncc4)n2)OCC3(C)N)C(F)(F)F)ccc1OCCO (stereo not drawn) [Compound 26]	> 100	< 50	1 to 50	–
COc1cc(C(=O)NCC(O)(c2cc3c(c(-c4ccc(F)cc4)n2)OCC3(C)N)C(F)(F)F)ccc1NCCO (stereo not drawn) [Compound 30]	10 to 100	< 1	< 1	–
COc1cc(C(=O)NCC(O)(c2cc3c(c(-c4ccc(F)cc4)n2)OCC3(C)N)C(F)(F)F)ccc1NC1CC1 (stereo not drawn) [Compound 31]	10 to 100	< 1	< 1	–
CC(C)(N)c1cc(-c2ccc(F)cc2)nc(C(O)(CNC(=O)c2ccc(OCCO)c(OC3CC3)c2)C(F)(F)F)c1 (stereo not drawn) [Compound 34]	10 to 100	< 1	< 1	–
CC(C)(N)c1cc(-c2ccc(F)cc2)nc(C(O)(CNC(=O)c2ccc(OC3CC3)c(OCCO)c2)C(F)(F)F)c1 (stereo not drawn) [Compound 36]	10 to 100	< 1	< 1	–
COc1ccc(C(=O)NCC(O)(c2cc(C(C)(C)N)cc(-c3ccc(F)cc3)n2)C(F)(F)F)cc1OCCO (stereo not drawn) [Compound 37]	> 100	< 1	< 1	–
C[C@@H](O)COc1cc(C(=O)NCC(O)(c2cc(C(C)(C)N)cc(-c3ccc(F)cc3)n2)C(F)(F)F)ccc1OC1CC1 (stereo partly drawn) [Compound 38]	10 to 100	–	< 1	< 1
COc1ccc(C(=O)NCC(O)(c2cc(C(C)(C)N)cc(-c3ccc(F)cc3)n2)C(F)(F)F)cc1OC[C@@H](C)O (stereo partly drawn) [Compound 39]	10 to 100	< 1	< 1	–
COc1cc(C(=O)NCC(N)(c2cc(C(C)(C)N)cc(-c3ccc(F)cc3)n2)C(F)(F)F)ccc1OCCO (stereo not drawn) [Compound 40]	> 100	< 1	< 1	–
CC(C)(N)c1cc(-c2ccc(F)cc2)nc(C(N)(CNC(=O)c2ccc(OC3CC3)c(OCCO)c2)C(F)(F)F)c1 (stereo not drawn) [Compound 41]	10 to 100	< 1	< 1	–
COc1cc(C(=O)NCC(O)(c2cc3c(c(-c4ccc(F)cc4)n2)OCC3(C)N)C(F)(F)F)cc2c1NC(=O)NC2 (stereo not drawn) [Compound 43]	10 to 100	< 1	1 to 50	–
COc1cc(C(=S)NCC(O)(c2cc3c(c(-c4ccc(F)cc4)n2)OCC3(C)N)C(F)(F)F)ccc1OCCO (stereo not drawn) [Compound 44]	10 to 100	< 1	< 1	–
COc1nc(C(=O)NCC(O)(c2cc3c(c(-c4ccc(F)cc4)n2)OCC3(C)N)C(F)(F)F)cc2c1NC(=O)C2 (stereo not drawn) [Compound 47]	10 to 100	< 1	< 1	–
CC1(N)COc2c1cc(C(O)(CNC(=O)c1ccc(CCO)c(OC3CC3)c1)C(F)(F)F)nc2-c1ccc(F)cc1 (stereo not drawn) [Compound 49]	10 to 100	< 1	< 1	–
C[C@@]1(N)COc2c1cc([C@](O)(CNC(=O)c1ccc(OCCO)c(OC3CC3)c1)C(F)(F)F)nc2-c1ccc(F)cc1 [Compound 55]	10 to 100	< 1	< 1	–
CC(C)(N)c1cc(-c2ccc(F)cc2)nc([C@@](O)(CNC(=O)c2ccc(OCCO)c(OC3CC3)c2)C(F)(F)F)c1 [Compound 57]	10 to 100	< 1	< 1	–
CC(C)(N)c1cc(-c2ccc(F)cc2)nc([C@@](O)(CNC(=O)c2ccc(OC3CC3)c(OCCO)c2)C(F)(F)F)c1 [Compound 59]	10 to 100	< 1	< 1	–
